Data: patent US20260297085A1, “1 H-PYRROLO[2,3-B]PYRIDIN-4-YL]-2-OXOPYRROLIDINE-3-CARBONITRILE DERIVATIVES AS TYROSINE KINASE 2 (TYK2) INHIBITORS FOR THE TREATMENT OF INFLAMMATORY DISEASES” (BIOGEN MA INC., priority 2023, published 2026)
Counter-ions that a name gives are not always drawn.

What was measured:
[1] = molecular target: JAK1 kinase activity on STAT3 in TF1 cells (Homo sapiens, UniProt P23458); assay: pSTAT3 cell assay (MSD; TF1 cells, 30 ng/mL IL-6 stimulation); type: cell-based; conditions: 30 ng/mL IL-6, 15 minutes
Sequence of JAK1 kinase activity on STAT3 in TF1 cells (P23458 whole entry): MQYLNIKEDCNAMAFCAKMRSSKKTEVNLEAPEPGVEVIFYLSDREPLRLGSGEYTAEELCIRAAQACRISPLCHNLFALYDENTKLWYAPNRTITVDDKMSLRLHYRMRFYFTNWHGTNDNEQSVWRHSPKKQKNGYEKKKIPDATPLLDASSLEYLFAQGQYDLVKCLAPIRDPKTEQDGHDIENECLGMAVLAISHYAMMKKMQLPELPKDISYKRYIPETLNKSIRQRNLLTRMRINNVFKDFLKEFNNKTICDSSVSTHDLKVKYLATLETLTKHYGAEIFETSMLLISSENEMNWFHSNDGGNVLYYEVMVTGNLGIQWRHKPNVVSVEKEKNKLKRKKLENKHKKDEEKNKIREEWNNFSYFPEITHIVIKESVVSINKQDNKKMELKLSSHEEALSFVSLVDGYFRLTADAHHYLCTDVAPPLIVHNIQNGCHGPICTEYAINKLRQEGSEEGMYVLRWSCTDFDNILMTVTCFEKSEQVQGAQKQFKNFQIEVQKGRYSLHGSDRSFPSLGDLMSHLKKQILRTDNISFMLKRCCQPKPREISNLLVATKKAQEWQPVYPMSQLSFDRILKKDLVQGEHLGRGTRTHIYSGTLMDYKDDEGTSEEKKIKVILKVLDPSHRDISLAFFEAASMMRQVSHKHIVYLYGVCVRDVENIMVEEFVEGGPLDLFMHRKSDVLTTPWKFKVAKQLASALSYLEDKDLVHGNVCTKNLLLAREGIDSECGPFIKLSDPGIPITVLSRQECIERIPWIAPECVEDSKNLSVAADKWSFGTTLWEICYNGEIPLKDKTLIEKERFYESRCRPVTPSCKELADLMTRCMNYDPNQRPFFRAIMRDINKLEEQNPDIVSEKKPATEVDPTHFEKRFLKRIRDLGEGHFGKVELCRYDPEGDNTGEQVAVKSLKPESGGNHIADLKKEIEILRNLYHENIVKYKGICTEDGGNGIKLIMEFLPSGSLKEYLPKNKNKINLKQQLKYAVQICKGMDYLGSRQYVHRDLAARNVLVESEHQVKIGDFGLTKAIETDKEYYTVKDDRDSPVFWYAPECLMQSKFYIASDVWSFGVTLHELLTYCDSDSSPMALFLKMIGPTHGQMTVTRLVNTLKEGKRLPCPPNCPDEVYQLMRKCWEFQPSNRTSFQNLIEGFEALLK
Summary of the method: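 IC50 values reflect 4-parameter logistic fits of normalized pSTAT3 signal, measured by MSD in lysed TF1 cells. Cells were serum-starved and treated with compound for 1 h (top concentration 10 μM) before a 15 min IL-6 challenge.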

[2] = molecular target: T1, human JAK3 kinase domain (JH1) (Homo sapiens, UniProt P52333); assay: JH1 biochemical assay for JAK3 (ADP-Glo kinase assay, recombinant JH1 catalytic domain, JAK3-974 peptide, 4 μM ATP)
T1 construct: recombinantly generated catalytic kinase (also known as JH1) domain of human JAK1, JAK2, JAK3 and TYK2
T1 sequence (P52333 822-1111 limits assumed): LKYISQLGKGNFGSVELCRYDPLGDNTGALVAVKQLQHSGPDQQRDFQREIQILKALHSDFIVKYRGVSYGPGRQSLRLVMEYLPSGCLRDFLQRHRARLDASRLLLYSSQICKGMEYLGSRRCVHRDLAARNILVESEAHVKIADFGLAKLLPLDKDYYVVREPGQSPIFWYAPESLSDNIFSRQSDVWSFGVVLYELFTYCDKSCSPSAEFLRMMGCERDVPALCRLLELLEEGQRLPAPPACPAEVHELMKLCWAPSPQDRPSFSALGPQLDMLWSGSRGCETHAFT
Summary of the method: (§1)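 ADP-Glo luminescence with 50 μM peptide and 100 min reactions: JAK1 4 nM with JAK3-342 peptide; JAK2, JAK3 and TYK2 at 0.2, 0.3 and 2 nM with JAK3-974 peptide. Compounds tested from 10 or 1 μM top, 11 points, 3-fold. IC50 from a 4-parameter logistic fit of normalized activity.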

[3] = molecular target: JAK2 kinase activity on STAT5 in TF1 cells (Homo sapiens, UniProt O60674); assay: pSTAT5 cell assay (MSD; TF1 cells, 30 ng/mL IL-3 stimulation); type: cell-based; conditions: 30 ng/mL IL-3, 15 minutes
Sequence of JAK2 kinase activity on STAT5 in TF1 cells (O60674 whole entry): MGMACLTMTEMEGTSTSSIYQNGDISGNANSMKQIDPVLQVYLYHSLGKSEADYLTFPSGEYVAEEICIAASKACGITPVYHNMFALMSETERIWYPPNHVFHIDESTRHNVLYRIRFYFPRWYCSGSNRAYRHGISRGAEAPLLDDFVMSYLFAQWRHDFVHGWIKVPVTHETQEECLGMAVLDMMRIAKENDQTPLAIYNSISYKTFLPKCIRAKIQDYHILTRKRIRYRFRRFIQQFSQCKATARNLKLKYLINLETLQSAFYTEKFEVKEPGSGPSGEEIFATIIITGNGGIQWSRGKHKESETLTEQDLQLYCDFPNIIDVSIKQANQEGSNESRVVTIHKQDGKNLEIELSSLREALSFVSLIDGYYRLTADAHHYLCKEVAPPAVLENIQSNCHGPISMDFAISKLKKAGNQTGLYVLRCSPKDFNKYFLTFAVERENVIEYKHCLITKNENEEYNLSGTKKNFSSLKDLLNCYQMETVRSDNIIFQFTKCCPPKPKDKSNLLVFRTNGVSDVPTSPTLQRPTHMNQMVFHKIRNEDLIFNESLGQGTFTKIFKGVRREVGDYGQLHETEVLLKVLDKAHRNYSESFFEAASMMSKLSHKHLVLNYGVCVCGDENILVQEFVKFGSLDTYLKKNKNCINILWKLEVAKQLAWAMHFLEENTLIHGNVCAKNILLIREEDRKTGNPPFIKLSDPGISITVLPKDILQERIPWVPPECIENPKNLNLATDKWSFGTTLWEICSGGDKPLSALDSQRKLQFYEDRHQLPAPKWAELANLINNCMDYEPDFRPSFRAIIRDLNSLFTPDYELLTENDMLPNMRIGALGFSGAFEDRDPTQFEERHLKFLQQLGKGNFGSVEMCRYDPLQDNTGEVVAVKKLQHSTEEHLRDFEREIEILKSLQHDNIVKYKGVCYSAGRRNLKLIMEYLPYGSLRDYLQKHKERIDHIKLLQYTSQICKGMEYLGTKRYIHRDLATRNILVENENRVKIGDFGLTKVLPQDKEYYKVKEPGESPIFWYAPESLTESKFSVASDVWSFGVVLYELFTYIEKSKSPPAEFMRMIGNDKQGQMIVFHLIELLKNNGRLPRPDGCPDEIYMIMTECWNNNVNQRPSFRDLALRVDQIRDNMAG
Summary of the method: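 IC50 from a 4-parameter logistic fit of normalized pSTAT5 signal, measured by MSD in lysates of TF1 cells. Cells were serum-starved, exposed to compound for 1 h (top concentration 10 μM, four-fold, 10 points), then given IL-3 at 30 ng/mL for 15 min.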

[4] = molecular target: Tyk2 kinase activity on STAT4 in NK92 cells (Homo sapiens, UniProt P29597); assay: pSTAT4 cell assay (MSD; NK92 cells, 30 ng/mL IL2 stimulation); type: cell-based; conditions: 30 ng/mL IL2, 15 minutes
Sequence of Tyk2 kinase activity on STAT4 in NK92 cells (P29597 whole entry): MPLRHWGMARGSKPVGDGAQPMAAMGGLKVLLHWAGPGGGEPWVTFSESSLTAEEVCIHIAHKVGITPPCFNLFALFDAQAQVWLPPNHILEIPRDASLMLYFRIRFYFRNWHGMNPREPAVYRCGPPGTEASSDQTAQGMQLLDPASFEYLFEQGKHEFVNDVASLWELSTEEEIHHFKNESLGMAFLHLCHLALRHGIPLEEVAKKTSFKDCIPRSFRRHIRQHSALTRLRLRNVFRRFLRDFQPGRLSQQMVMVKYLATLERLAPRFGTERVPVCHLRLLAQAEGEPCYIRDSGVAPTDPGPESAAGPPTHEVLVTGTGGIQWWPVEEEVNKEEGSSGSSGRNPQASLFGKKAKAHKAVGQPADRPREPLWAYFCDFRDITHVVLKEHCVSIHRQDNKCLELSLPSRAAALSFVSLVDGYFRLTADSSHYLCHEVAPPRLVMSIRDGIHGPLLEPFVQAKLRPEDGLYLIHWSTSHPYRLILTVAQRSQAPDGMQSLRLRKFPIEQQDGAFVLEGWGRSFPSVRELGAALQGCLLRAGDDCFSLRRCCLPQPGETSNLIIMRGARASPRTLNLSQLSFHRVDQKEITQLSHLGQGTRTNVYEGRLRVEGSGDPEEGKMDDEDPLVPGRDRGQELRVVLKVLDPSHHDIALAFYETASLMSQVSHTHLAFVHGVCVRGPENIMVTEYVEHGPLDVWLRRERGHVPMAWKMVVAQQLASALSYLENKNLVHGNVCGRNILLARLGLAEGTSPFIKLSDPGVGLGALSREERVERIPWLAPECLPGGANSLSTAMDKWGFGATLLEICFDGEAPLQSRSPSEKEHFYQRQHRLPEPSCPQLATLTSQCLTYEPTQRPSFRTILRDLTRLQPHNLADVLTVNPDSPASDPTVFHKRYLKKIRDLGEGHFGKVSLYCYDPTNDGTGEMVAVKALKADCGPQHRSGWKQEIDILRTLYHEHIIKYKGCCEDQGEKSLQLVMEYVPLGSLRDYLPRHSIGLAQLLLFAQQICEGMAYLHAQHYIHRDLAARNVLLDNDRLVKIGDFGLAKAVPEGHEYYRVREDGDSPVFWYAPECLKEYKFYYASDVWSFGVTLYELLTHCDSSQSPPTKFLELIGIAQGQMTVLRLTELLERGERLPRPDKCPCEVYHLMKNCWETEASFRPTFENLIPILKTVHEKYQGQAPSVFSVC
Summary of the method: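 IC50 values come from 4-parameter logistic fits of normalized percent activity. Phospho-STAT was read by MSD (anti-STAT4 antibodies) in NK92 lysates after a 15 min stimulation with 30 ng/mL IL2. The serum-starved cells had been given compound for 1 h (10 points, four-fold, top 10 μM).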

[5] = molecular target: T2, human JAK2 kinase domain (JH1) (Homo sapiens, UniProt O60674); assay: JH1 biochemical assay for JAK2 (ADP-Glo kinase assay, recombinant JH1 catalytic domain, JAK3-974 peptide, 15 μM ATP)
T2 construct: recombinantly generated catalytic kinase (also known as JH1) domain of human JAK1, JAK2, JAK3 and TYK2
T2 sequence (O60674 849-1124 limits assumed): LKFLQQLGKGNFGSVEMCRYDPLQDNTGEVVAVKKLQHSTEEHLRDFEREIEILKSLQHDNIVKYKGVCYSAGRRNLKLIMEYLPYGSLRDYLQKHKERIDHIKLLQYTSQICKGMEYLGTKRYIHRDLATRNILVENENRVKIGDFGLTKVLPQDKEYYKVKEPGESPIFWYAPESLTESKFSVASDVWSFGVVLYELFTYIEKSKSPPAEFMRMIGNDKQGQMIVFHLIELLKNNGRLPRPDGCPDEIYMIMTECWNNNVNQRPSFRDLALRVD
Summary of the method: as §1

[6] = molecular target: T3, human JAK1 kinase domain (JH1) (Homo sapiens, UniProt P23458); assay: JH1 biochemical assay for JAK1 (ADP-Glo kinase assay, recombinant JH1 catalytic domain, JAK3-342 peptide, 35 μM ATP)
T3 construct: recombinantly generated catalytic kinase (also known as JH1) domain of human JAK1, JAK2, JAK3 and TYK2
T3 sequence (P23458 875-1153 limits assumed): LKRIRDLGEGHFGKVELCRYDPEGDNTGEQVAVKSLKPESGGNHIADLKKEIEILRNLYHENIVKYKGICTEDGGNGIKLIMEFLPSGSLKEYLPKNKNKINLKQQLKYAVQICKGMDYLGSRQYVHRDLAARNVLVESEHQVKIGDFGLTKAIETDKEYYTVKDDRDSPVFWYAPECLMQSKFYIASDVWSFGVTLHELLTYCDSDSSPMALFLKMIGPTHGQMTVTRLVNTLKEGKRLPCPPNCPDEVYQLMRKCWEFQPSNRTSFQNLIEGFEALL
Summary of the method: as §1

[7] = molecular target: T4, human TYK2 kinase domain (JH1) (Homo sapiens, UniProt P29597); assay: JH1 biochemical assay for TYK2 (ADP-Glo kinase assay, recombinant JH1 catalytic domain, JAK3-974 peptide, 10 μM ATP)
T4 construct: recombinantly generated catalytic kinase (also known as JH1) domain of human JAK1, JAK2, JAK3 and TYK2
T4 sequence (P29597 897-1176 limits assumed): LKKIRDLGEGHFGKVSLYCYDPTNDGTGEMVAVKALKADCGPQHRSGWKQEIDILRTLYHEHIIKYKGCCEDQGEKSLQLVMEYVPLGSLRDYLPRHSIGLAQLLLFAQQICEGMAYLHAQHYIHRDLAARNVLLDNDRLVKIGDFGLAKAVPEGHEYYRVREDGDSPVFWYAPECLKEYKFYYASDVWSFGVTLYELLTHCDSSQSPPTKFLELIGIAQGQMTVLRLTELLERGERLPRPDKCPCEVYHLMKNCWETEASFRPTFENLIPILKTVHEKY
Summary of the method: as §1

SMILES	IC50 [1]	IC50 ([2]; JH1 kinase domain, ADP-Glo)	IC50 [3]	IC50 [4]	IC50 ([5]; JH1 kinase domain, ADP-Glo)	IC50 ([6]; JH1 kinase domain, ADP-Glo)	IC50 ([7]; JH1 kinase domain, ADP-Glo)	IC50 ([2]; JAK3 JH1, ADP-Glo)	IC50 ([5]; JAK2 JH1, ADP-Glo)	IC50 ([6]; JAK1 JH1, ADP-Glo)	IC50 ([7]; TYK2 JH1, ADP-Glo)
[2H]C([2H])([2H])n1cc(-c2cc3c(N4C[C@@H](C)[C@@](C#N)(C5CC5)C4=O)ccnn3c2)cn1 [Example 164, (3R,4 S)-3-cyclopropyl-4-methyl-1-(6-(1-(methyl-d3)-1H-pyrazol-4-yl)pyrrolo[1,2-b]pyridazin-4-yl)-2-oxopyrrolidine-3-carbonitrile]	1000 to 5000 nM	< 100 nM	5 to 10 µM	20 to 50 nM	100 to 1000 nM	< 100 nM	< 5 nM				
C[C@@H]1CN(c2nc(-c3cnn(C(F)F)c3)cn3ncc(F)c23)C(=O)[C@]1(C#N)C1CC1 [Example 189, (3R,4S)-3-cyclopropyl-1-(6-(1-(difluoromethyl)-1H-pyrazol-4-yl)-3-fluoropyrazolo[1,5-a]pyrazin-4-yl)-4-methyl-2-oxopyrrolidine-3-carbonitrile]	1000 to 5000 nM	< 100 nM	1 to 5 µM	50 to 100 nM	100 to 1000 nM	< 100 nM	< 5 nM				
Cc1c(-c2cn3nccc3c(N3C[C@@H](C)[C@@](C#N)(C4CC4)C3=O)n2)cnn1C [Example 199, (3R,4S)-3-cyclopropyl-1-(6-(1,5-dimethyl-1H-pyrazol-4-yl)pyrazolo[1,5-a]pyrazin-4-yl)-4-methyl-2-oxopyrrolidine-3-carbonitrile]	1000 to 5000 nM	100 to 1000 nM	5 to 10 µM	> 100 nM	100 to 1000 nM	< 100 nM	5 to 20 nM				
COc1ccc(-c2cc3c(N4C[C@@H](C)[C@@](C#N)(C5CC5)C4=O)ccnn3c2)cn1 [Example 48, (3R,4S)-3-cyclopropyl-1-(6-(6-methoxypyridin-3-yl)pyrrolo[1,2-b]pyridazin-4-yl)-4-methyl-2-oxopyrrolidine-3-carbonitrile]	1000 to 5000 nM	100 to 1000 nM	5 to 10 µM	> 100 nM	100 to 1000 nM	100 to 1000 nM	5 to 20 nM				
C[C@@H]1CN(c2nc(-c3cnn(C4CCOCC4)c3)cn3nccc23)C(=O)[C@]1(C#N)C1CC1 [Example 203, (3R,4S)-3-cyclopropyl-4-methyl-2-oxo-1-(6-(1-(tetrahydro-2H-pyran-4-yl)-1H-pyrazol-4-yl)pyrazolo[1,5-a]pyrazin-4-yl)pyrrolidine-3-carbonitrile]	100 to 1000 nM	< 100 nM	< 0.1 µM	20 to 50 nM	< 100 nM	< 100 nM	< 5 nM				
C[C@@H]1CN(c2ccnn3cc(-c4ccnc(C#N)c4)cc23)C(=O)[C@]1(C#N)C1CC1 [Example 93, 4-(4-((3R,4S)-3-cyano-3-cyclopropyl-4-methyl-2-oxopyrrolidin-1-yl)pyrrolo[1,2-b]pyridazin-6-yl)picolinonitrile]	5000 to 10000 nM	100 to 1000 nM	> 10 µM	> 100 nM	100 to 1000 nM	100 to 1000 nM	5 to 20 nM				
C[C@@H]1CN(c2ccnc3[nH]c(-c4cnn(C)c4)nc23)C(=O)[C@]1(C#N)C1CC1 [Example 181, (3R,4S)-3-cyclopropyl-4-methyl-1-(2-(1-methyl-1H-pyrazol-4-yl)-3H-imidazo[4,5-b]pyridin-7-yl)-2-oxopyrrolidine-3-carbonitrile]	1000 to 5000 nM	100 to 1000 nM	5 to 10 µM	> 100 nM	100 to 1000 nM	100 to 1000 nM	5 to 20 nM				
C[C@@H]1CN(c2ccnn3cc(-c4cnn(C56CC(C#N)(C5)C6)c4)cc23)C(=O)[C@]1(C#N)C1CC1 [Example 320, (3R,4S)-1-(6-(1-(3-cyanobicyclo[1.1.1]pentan-1-yl)-1H-pyrazol-4-yl)pyrrolo[1,2-b]pyridazin-4-yl)-3-cyclopropyl-4-methyl-2-oxopyrrolidine-3-carbonitrile]	1000 to 5000 nM		1 to 5 µM	50 to 100 nM				< 100 nM	< 100 nM	100 to 1000 nM	< 5 nM
C[C@@H]1CN(c2nc(-c3cnn(C4CC(F)(F)C4)c3)cn3nccc23)C(=O)[C@]1(C#N)C1CC1 [Example 290, (3R,4S)-3-cyclopropyl-1-(6-(1-(3,3-difluorocyclobutyl)-1H-pyrazol-4-yl)pyrazolo[1,5-a]pyrazin-4-yl)-4-methyl-2-oxopyrrolidine-3-carbonitrile]	100 to 1000 nM		0.1 to 1 µM	20 to 50 nM				< 100 nM	< 100 nM	< 100 nM	< 5 nM
C[C@@H]1CN(c2nc(-c3ccc(C#N)nc3)cn3nccc23)C(=O)[C@]1(C#N)C1CC1 [Example 195, 5-(4-((3R,4S)-3-cyano-3-cyclopropyl-4-methyl-2-oxopyrrolidin-1-yl)pyrazolo[1,5-a]pyrazin-6-yl)picolinonitrile]	1000 to 5000 nM	< 100 nM	> 10 µM	> 100 nM	100 to 1000 nM	< 100 nM	5 to 20 nM				
Cc1ccc(-c2cc3c(N4C[C@@H](C)[C@@](C#N)(C5CC5)C4=O)ccnn3c2)cn1 [Example 67, (3R,4S)-3-cyclopropyl-4-methyl-1-(6-(6-methylpyridin-3-yl)pyrrolo[1,2-b]pyridazin-4-yl)-2-oxopyrrolidine-3-carbonitrile]	1000 to 5000 nM	100 to 1000 nM	5 to 10 µM	> 100 nM	100 to 1000 nM	100 to 1000 nM	5 to 20 nM				
C[C@@H]1CN(c2nc(-c3cnn(C4CC(C#N)C4)c3)cc3ncsc23)C(=O)[C@]1(C#N)C1CC1 (stereo partly drawn) [Example 356, (3R,4S)-1-(6-(1-(3-cyanocyclobutyl)-1H-pyrazol-4-yl)thiazolo[5,4-c]pyridin-4-yl)-3-cyclopropyl-4-methyl-2-oxopyrrolidine-3-carbonitrile]	100 to 1000 nM		< 0.1 µM	20 to 50 nM				< 100 nM	< 100 nM	< 100 nM	< 5 nM
C[C@@H]1CN(c2nc(-c3cnn(C4COC4)c3)cn3nccc23)C(=O)[C@]1(C#N)C1CC1 [Example 251, (3R,4S)-3-cyclopropyl-4-methyl-1-(6-(1-(oxetan-3-yl)-1H-pyrazol-4-yl)pyrazolo[1,5-a]pyrazin-4-yl)-2-oxopyrrolidine-3-carbonitrile]	100 to 1000 nM		0.1 to 1 µM	20 to 50 nM				< 100 nM	< 100 nM	< 100 nM	< 5 nM
COc1cc(-c2cc3c(N4CC[C@@](C#N)(C5CC5)C4=O)ccnc3[nH]2)ccn1 [Example 3, (S)-3-cyclopropyl-1-(2-(2-methoxypyridin-4-yl)-1H-pyrrolo[2,3-b]pyridin-4-yl)-2-oxopyrrolidine-3-carbonitrile]	100 to 1000 nM	< 100 nM	1 to 5 µM	20 to 50 nM	< 100 nM	< 100 nM	< 5 nM				
CNC(=O)c1cc(-c2cn3nccc3c(N3C[C@@H](C)[C@@](C#N)(C4CC4)C3=O)n2)ccn1 [Example 252, 4-(4-((3R,4S)-3-cyano-3-cyclopropyl-4-methyl-2-oxopyrrolidin-1-yl)pyrazolo[1,5-a]pyrazin-6-yl)-N-methylpicolinamide trifluoroacetate]	1000 to 5000 nM		> 10 µM	> 100 nM				100 to 1000 nM	100 to 1000 nM	100 to 1000 nM	5 to 20 nM
C[C@@H]1CN(c2ccnn3cc(-c4ccnc(C(F)(F)F)c4)cc23)C(=O)[C@]1(C#N)C1CC1 [Example 69, (3R,4S)-3-cyclopropyl-4-methyl-2-oxo-1-(6-(2-(trifluoromethyl)pyridin-4-yl)pyrrolo[1,2-b]pyridazin-4-yl)pyrrolidine-3-carbonitrile]	5000 to 10000 nM	100 to 1000 nM	> 10 µM	> 100 nM	1000 to 5000 nM	100 to 1000 nM	5 to 20 nM				
